Source: US20110097274A1, “Carbon-11 and fluorine-18 labeled radioligands for positron emission tomography (PET) imaging for the brain serotonin transporters” (priority 2002, published 2011)
“And” between values parts separate entries of the source, which are not always exact repeats. Equal entries are not always repeated. Where two headings read alike, the source gives them in different places.

Experiments:
[1] = Baboon PET imaging: brain uptake, kinetic analysis and SERT parameters; format: in vivo; conditions: male, baboon, intravenous, baboons
Protocol: (§1) PET imaging protocol: PET experiments (n=20) were performed at Columbia University. Two adult male baboons (baboon A and B) were studied twice with each of the 5 radioligands (4 experiments per radioligand). All experiments took place within a 9-month period. Baboons A and B were 31 kg and 21 kg in weight at the beginning of the experimental period and 28 and 22 kg at the end, respectively. Test and retest experiments with the same radioligand were obtained on different days, with an average interval of 117±53 days.
(§2) Experiments were performed according to protocols approved by the Columbia-Presbyterian Medical Center Institutional Animal Care and Use Committee. Fasted animals were immobilized with ketamine (10 mg/kg i.m.), and anesthetized with 1.8% isoflurane via an endotracheal tube. Vital signs were monitored every 10 minutes and the temperature was kept constant at 37° C. with heated water blankets. An i.v. perfusion line was used for hydration and injection of radioligands and nonradioactive drugs. A catheter was inserted in a femoral artery for arterial blood sampling. Head was positioned at the center of the field of view as defined by imbedded laser lines. PET imaging was performed with the ECAT EXACT HR+PET scanner (Siemens/CTI, Knoxville, Tenn.). In 3D mode, this camera provides an in-plane resolution of 4.3 mm, 4.5 mm, 5.4 mm and 8.0 mm full width at half maximum (FWHM) at a distance of 0, 1, 10 and 20 cm from the center of the field of view, respectively (Brix et al., 1997). A 15 minute transmission scan was obtained prior to radioligand injection for attenuation correction. Activity was injected i.v. over 30 seconds. […] Emission data was collected in the 3D mode for 91 minutes as 21 successive frames of increasing duration (6*10 seconds, 2*1 minutes, 4*2 minutes, 2*5 minutes, and 7*10 minutes).
(§3) Image analysis: A Magnetic Resonance Image (MRI) of each baboon's brain was obtained for the purpose of identifying the regions of interest (ROI) (T1-weighted axial MRI sequence, acquired parallel to the anterior-posterior commissure, TR 34 msec, TE 5 msec, flip angle of 45 degrees, slice thickness is 1.5 mm, zero gap, matrix 1.5 mm×1 mm×1 mm voxels). The following regions were drawn on the MR images: cerebellum, midbrain, thalamus, striatum, hippocampus, temporal cortex, cingulate cortex and occipital cortex.
(§4) PET emission data were attenuation-corrected using the transmission scan, and frames were reconstructed using a Shepp filter (cutoff 0.5 cycles/projection rays). Reconstructed image files were then processed using the image analysis software MEDx (Sensor Systems, Inc., Sterling, Va.). An image was created by summing all the frames, and this summed image was used to define the registration parameters with the MR image, using between-modality automated image registration (AIR) algorithm (Woods et al., 1993). Registration parameters were then applied to the individual frames for registration to the MR data set. Regional boundaries were transferred to the individual registered PET frames, and time-activity curves were measured and decay-corrected. Right and left regions were averaged. For a given animal, the same regions were used for all radioligands.
(§5) Brain uptake: Total brain uptake was expressed as percentage of the injected dose per gram of tissue (% ID g^−1) in a region encompassing the entire brain. Regional peak time was defined as the mid-time of the frame associated with the highest activity value. To estimate the degree of wash-out from the brain captured during the scan interval (91 minutes), the decrease in activity from the peak frame to the last frame was calculated and expressed in percentage of the peak activity.
(§6) Kinetic analysis: Regional total distribution volumes (VT, mL g^−1) were derived with kinetic analysis of the regional time-activity curves, using the arterial plasma concentrations as input function. […]

SERT = test: as above; format: in vivo; conditions: for Kp: male, baboon, brain, intravenous
Protocol: as §1, §2, §3, §4, §5, §6

[2] = BP = VT ROI − VT CER, baboons, mean ± SD of four experiments
[3] = Mean ± SD of four experiments in two baboons
[4] = baboon A, experiments of FIGS. 5-9 (FIG. 10)
[5] = baboons, mean ± SD of four experiments
[6] = last scan 90 minutes, baboons, mean ± SD of four experiments
[7] = one-tissue compartment model, baboons, mean ± SD of four experiments

## CN(C)Cc1ccccc1Sc1ccc(Br)cc1N [[^11C]DAPA]
[1]; brain regions (average of all regions), read-out: VT, average of all regions and all animals
  Kp: 47.8 ± 16
[1]; cerebellum, one-tissue compartment model, mean ± SD of four experiments, read-out: VT Cerebellum (VT CER, nonspecific distribution volume)
  Kp: 29.3 ± 2.9
SERT; [2]
  Binding potential Cingulate Cortex: 7.9 ± 1.0 mL/g
  Binding potential Hippocampus: 15.5 ± 0.7 mL/g
  Binding potential Midbrain: 40.0 ± 4.3 mL/g
  Binding potential Occipital Cortex: 5.7 ± 1.9 mL/g
  Binding potential Striatum: 22.9 ± 0.9 mL/g
  Binding potential Temporal Cortex: 11.2 ± 3.3 mL/g
  Binding potential Thalamus: 45.1 ± 1.8 mL/g
SERT; Baboon A, single experiment
  Equilibrium specific to non-specific partition coefficient (V3″) Cingulate Cortex: 0.29 and 0.26
  Equilibrium specific to non-specific partition coefficient (V3″) Hippocampus: 0.54 and 0.48
  Equilibrium specific to non-specific partition coefficient (V3″) Midbrain: 1.41 and 1.37
  Equilibrium specific to non-specific partition coefficient (V3″) Occipital Cortex: 0.22 and 0.25
  Equilibrium specific to non-specific partition coefficient (V3″) Striatum: 0.73 and 0.72
  Equilibrium specific to non-specific partition coefficient (V3″) Temporal Cortex: 0.48 and 0.42
  Equilibrium specific to non-specific partition coefficient (V3″) Thalamus: 1.49 and 1.40
SERT; Baboon B, single experiment
  Equilibrium specific to non-specific partition coefficient (V3″) Cingulate Cortex: 0.25 and 0.27
  Equilibrium specific to non-specific partition coefficient (V3″) Hippocampus: 0.56 and 0.54
  Equilibrium specific to non-specific partition coefficient (V3″) Midbrain: 1.42 and 1.27
  Equilibrium specific to non-specific partition coefficient (V3″) Occipital Cortex: 0.15
  Equilibrium specific to non-specific partition coefficient (V3″) Striatum: 0.91 and 0.79
  Equilibrium specific to non-specific partition coefficient (V3″) Temporal Cortex: 0.30 and 0.32
  Equilibrium specific to non-specific partition coefficient (V3″) Thalamus: 1.81 and 1.52
SERT; [3]
  Equilibrium specific to non-specific partition coefficient (V3″) Cingulate Cortex: 0.27 ± 0.02
  Equilibrium specific to non-specific partition coefficient (V3″) Hippocampus: 0.53 ± 0.04
  Equilibrium specific to non-specific partition coefficient (V3″) Midbrain: 1.37 ± 0.07
  Equilibrium specific to non-specific partition coefficient (V3″) Occipital Cortex: 0.19 ± 0.05
  Equilibrium specific to non-specific partition coefficient (V3″) Striatum: 0.79 ± 0.09
  Equilibrium specific to non-specific partition coefficient (V3″) Temporal Cortex: 0.38 ± 0.09
  Equilibrium specific to non-specific partition coefficient (V3″) Thalamus: 1.55 ± 0.18
SERT; [4]
  Thalamus to cerebellum ratio equal to true equilibrium ratio (V3″+1): 2.49
  Time at which measured thalamus to cerebellum ratio equals the true equilibrium ratio (estimate of peak specific binding): 80 min
SERT; baboons
  K1, average of all regions and all animals: 0.85 ± 0.23 mL/g/min
  k2, average of all regions and all animals: 0.020 ± 0.008 min⁻¹
SERT; baboons, combining all regions
  V3″ expressed in percentage of [^11C]McN 5652 V3″: 151±18%
SERT; baboons, mean of all regions
  Mean regional peak uptake time: 50 ± 20 min
  Mean regional wash-out (% decrease between peak time and last scan): 12±11%
SERT; [5]
  Cingulate Cortex to cerebellum activity ratio at 90 minutes: 1.27 ± 0.05
  Hippocampus to cerebellum activity ratio at 90 minutes: 1.42 ± 0.13
  Midbrain to cerebellum activity ratio at 90 minutes: 2.05 ± 0.31
  Occipital Cortex to cerebellum activity ratio at 90 minutes: 1.19 ± 0.08
  Regional uptake peak time Cerebellum: 24 ± 10 min
  Regional uptake peak time Cingulate Cortex: 36 ± 8 min
  Regional uptake peak time Hippocampus: 64 ± 15 min
  Regional uptake peak time Midbrain: 71 ± 13 min
  Regional uptake peak time Occipital Cortex: 36 ± 8 min
  Regional uptake peak time Striatum: 51 ± 19 min
  Regional uptake peak time Temporal Cortex: 49 ± 10 min
  Regional uptake peak time Thalamus: 69 ± 13 min
  Striatum to cerebellum activity ratio at 90 minutes: 1.69 ± 0.12
  Temporal Cortex to cerebellum activity ratio at 90 minutes: 1.35 ± 0.16
  Thalamus to cerebellum activity ratio at 90 minutes: 2.15 ± 0.30
SERT; baboons, region encompassing the entire brain
  Total brain uptake at 45 min: 0.018±0.002 % ID g^−1
SERT; [6]
  Regional activity wash-out: % decrease from peak to last scan, Cerebellum: 29 ± 14%
  Regional activity wash-out: % decrease from peak to last scan, Cingulate Cortex: 19 ± 9%
  Regional activity wash-out: % decrease from peak to last scan, Hippocampus: 4 ± 5%
  Regional activity wash-out: % decrease from peak to last scan, Midbrain: 2 ± 3%
  Regional activity wash-out: % decrease from peak to last scan, Occipital Cortex: 18 ± 7%
  Regional activity wash-out: % decrease from peak to last scan, Striatum: 8 ± 8%
  Regional activity wash-out: % decrease from peak to last scan, Temporal Cortex: 11 ± 5%
  Regional activity wash-out: % decrease from peak to last scan, Thalamus: 3 ± 4%
SERT; cingulate cortex, one-tissue compartment model, baboons, mean ± SD of four experiments, read-out: VT Cingulate Cortex
  Kp: 37.1 ± 3.8
SERT; hippocampus, one-tissue compartment model, baboons, mean ± SD of four experiments, read-out: VT Hippocampus
  Kp: 44.7 ± 3.4
SERT; midbrain, one-tissue compartment model, baboons, mean ± SD of four experiments, read-out: VT Midbrain
  Kp: 69.2 ± 7
SERT; occipital cortex, one-tissue compartment model, baboons, mean ± SD of four experiments, read-out: VT Occipital Cortex
  Kp: 35 ± 4.8
SERT; striatum, one-tissue compartment model, baboons, mean ± SD of four experiments, read-out: VT Striatum
  Kp: 52.1 ± 3
SERT; temporal cortex, one-tissue compartment model, baboons, mean ± SD of four experiments, read-out: VT Temporal Cortex
  Kp: 40.5 ± 6
SERT; thalamus, one-tissue compartment model, baboons, mean ± SD of four experiments, read-out: VT Thalamus
  Kp: 74.4 ± 3.1
SERT; [7]
  K1 Cerebellum: 0.99 ± 0.29 mL/g/min
  K1 Cingulate Cortex: 0.91 ± 0.24 mL/g/min
  K1 Hippocampus: 0.67 ± 0.16 mL/g/min
  K1 Midbrain: 0.86 ± 0.27 mL/g/min
  K1 Occipital Cortex: 0.83 ± 0.17 mL/g/min
  K1 Striatum: 0.90 ± 0.26 mL/g/min
  K1 Temporal Cortex: 0.78 ± 0.18 mL/g/min
  K1 Thalamus: 0.89 ± 0.26 mL/g/min
  K2 Cerebellum: 0.034 ± 0.009 min⁻¹
  K2 Cingulate Cortex: 0.025 ± 0.006 min⁻¹
  K2 Hippocampus: 0.015 ± 0.003 min⁻¹
  K2 Midbrain: 0.012 ± 0.003 min⁻¹
  K2 Occipital Cortex: 0.024 ± 0.005 min⁻¹
  K2 Striatum: 0.017 ± 0.005 min⁻¹
  K2 Temporal Cortex: 0.019 ± 0.004 min⁻¹
  K2 Thalamus: 0.012 ± 0.004 min⁻¹
